The values that follow come from patent US20240033277A1, “METHODS FOR TREATING AUTOIMMUNE DISEASES” (NEW YORK SOCIETY FOR THE RELIEF OF THE RUPTURED AND …, priority 2020, published 2024).

“Also recorded” adds a separate entry of the source.

For series [1], the system named is IRE1α-XBP1 signaling in pDCs. In words: XBP1 splicing (Q-PCR) in pDCs. Format: cell-based, human.
Series [2] relates to pDCs. Kind of series: Intracellular ATP in pDCs (ATP determination kit). Particulars: then TLR9 agonist. Format: cell-based, human. As to the method:
(§1) Supernatants were removed, and cells were deproteinated in 0.5 ml of 0.5M MPA on ice for 5 min, followed by centrifugation at 10000×g for 5 min at 4° C. The deproteinated samples were neutralized with 25 μl of potassium carbonate, and then centrifugation at 10000×g for 5 min at 4° C. The supernatant was removed and deproteinated samples were used for pyruvate assay. For ATP determination, ATP determination kit (Sigma: A22066) was used in pDCs extracts as per the manufacture protocol.

For series [3], the system named is pDCs. In words: Serine biosynthesis gene expression (PHGDH, PSAT1, PSPH; Q-PCR) in pDCs. Format: cell-based, human.
Series [4] has as its system TLR9-activated pDCs. Kind of series: IFNA gene expression (Q-PCR) in pDCs activated with TLR9 agonist CpG-C274. Format: cell-based, human. Particulars: for IFNA expression in TLR9-activated pDCs under ER stress plus IRE1α inhibitor: TM or TG with MKC8866 at 1 μM or 4μ8c at 10 μM for 3 h, FIGS. 1F, 1G, 6C, 6D; for IFNA (IFN-I) expression in TLR9-activated pDCs: UK5099 at 10, 20, and 40 μM or CB839 at 0.5 μM for 1 h, FIGS. 11B-11C.

Series [5] deals with pDCs of SSc patients. In words: IFN-inducible gene expression in pDCs of patients with SSc. The format is cell-based, human. Particulars: CPI-613 at 200 μM for 13 h; FIG. 4G.
The subject of series [6] is pDCs. Kind of series: Cell viability of pDCs by flow cytometry (DAPI). Particulars: CPI-613 at 100 & 200 μM for 1 h, then TLR9 agonist for 5 h; FIG. 8F. A general note: Flow cytometry measures light scatter and fluorescence of single cells or particles in a stream.
Description: (§2) After 6-8 h of cell culture, pDCs were washed in PBS and then resuspending in FACS buffer and stained with DAPI. Cells were acquired by a fluorescence activated cell sorter (FACS) and analysis was performed using FlowJo analysis software. The gating strategy for viable cells involved progressively measuring total cells without uptake of DAPI.
(§3) Cell viability using Flow cytometry. After 6 h of cell culture, pDCs were washed in PBS and then resuspended in FACS buffer and stained with DAPI. Cells were acquired by a fluorescence activated cell sorter (FACS) and analysis was performed using FlowJo analysis software. The gating strategy for viable cells involved progressively measuring total cells without uptake of DAPI.
Series [7] relates to pDCs of SSc patients. In words: Secreted CXCL4 (ELISA) from pDCs of patients with SSc. The format is cell-based, human. To be noted: CPI-613 at 200 μM for 13 h, FIG. 4H. For orientation: ELISA stands for enzyme-linked immunosorbent assay.
In series [8] the test system is TLR9-activated pDCs. Kind of series: IFN-I gene and interferon-stimulated gene (ISG) expression in TLR9-activated pDCs (RNA-seq, Q-PCR). Format: cell-based, human. Particulars: CPI-613 at 100 & 200 μM for 1 h, then TLR9 agonist for 5 h; FIGS. 8A-8E.
For series [9], the system named is TLR9-activated pDCs. In words: Secreted IFN-α (ELISA) from pDCs activated with TLR9 agonist. The format is cell-based, human.
Series [10] concerns pDCs. In words: UPR and ER stress gene expression in pDCs (RNA-seq, Q-PCR). The format is cell-based, human.
The test system of series [11] is TLR9-activated pDCs. Kind of series: IL-6 gene expression (Q-PCR) in TLR9-activated pDCs. Format: cell-based, human. Particulars: TM or TG for 3 h, then TLR9 agonist; quantified at 5 h; FIG. 5F.
The test system of series [12] is pDCs. In words: Intracellular pyruvate in pDCs (pyruvate detection kit). The format is cell-based, human. To be noted: then TLR9 agonist for 2.5 h, FIGS. 2K, 2L. As to the method: as §1, with “Intracellular pyruvate were determined in pDCs by pyruvate detection kit (Cayman chemicals: 700470) as per the manufacture protocol. pDC cultured in RPMI medium were washed in 1 ml of PBS and centrifuged at 10000×g for 5 min at 4° C. Supernatants” for “Supernatants”

Series [13] has as its system pDCs.
Description: as §2, §3
Series [14] deals with pDCs. In words: IFN-α expression in pDCs cultured with ER stress inducers alone. Particulars: TM at 3 μg/ml or TG at 0.5 μM, no TLR agonist; FIGS. 1A, 1B. Format: cell-based, human.
Setting [15] is: then CpG-C274 0.075 μM, 5 h, normalized to TLR9 agonist.

As for `O=C(O)CCCCC(CCSCc1ccccc1)SCc1ccccc1` (stereo not drawn) [CPI-613, 6,8-bis-benzylthio-octanoic acid], the “effect on XBP1 splicing” value in [1] (CPI-613 at 100 & 200 μM for 1 h, then TLR9 agonist for 5 h, FIG. 8G) is “no effect”. Further, the “intracellular ATP levels in TLR9-activated pDCs” value in [2] (CPI-613 at 100 μM & 200 μM for 1 h, 4 h, normalized to medium, FIG. 3L) is “reduced”. Moreover, in [3] (CPI-613 at 100 & 200 μM for 1 h, then TLR9 agonist for 5 h, FIG. 8H), the “effect on expression of PHGDH” value was “no effect”. Moreover, the “IFNA expression in TLR9-activated pDCs” value in [4] (CPI-613 at 100 μM & 200 μM for 1 h, then TLR9 agonist, 5 h, FIG. 3J) is “inhibited; also recorded: reduces”. The “expression of IFN-inducible genes (GBP1, IRF7, ISG54, MxB, OAS2) by pDCs of SSc patients” value in series [5] is recorded as “drastically reduced”. The “effect on cell viability” value in series [6] is recorded as “no effect”. For the same molecule, the “secretion of CXCL4” value in series [7] is listed as “no effect”. In addition, the “expression of ISGs such as GBP1, IRF7, ISG54, MxB, CXCL10” value in series [8] is on record as “inhibited”. Besides, the “secretion of IFN-α by TLR9-activated pDCs” value in series [9] (CPI-613 at 100 μM & 200 μM for 1 h, then TLR9 agonist, 13 h, FIG. 3K) is “inhibited”. For the same molecule, the “induction of IFN-α by TLR9-stimulated pDCs in the presence of CXCL4” value in series [9] (CPI-613 at 200 μM for 1 h, then TLR9 agonist with CXCL4, 13 h ELISA, FIG. 4F) is given as “abrogated”.

With `CC(=O)C(=O)[O-].[Na+]` [pyruvate, sodium pyruvate], the “intracellular ATP levels under ER stress with metabolite supplementation” value in series [2] (TM or TG with pyruvate 10 mM or α-KG 10 mM for 3 h, 2.5 h, FIGS. 3E-3H) is recorded as “restored”. Also, in series [4] (TM or TG with sodium pyruvate 10 mM or α-KG 10 mM for 3 h, then TLR9 agonist, 5 h, FIGS. 3A-3D), the “IFNA expression by TLR9-activated pDCs under ER stress with metabolite supplementation” value is on record as “sufficient to restore”.

As for `N[C@@H](CO)C(=O)O` [L-serine], in series [9] (L-serine 1 mg/ml for 1 h, then TLR9 agonist, 13 h, FIG. 2J), the “IFN-α secretion by TLR9-activated pDCs” value is listed as “unaltered”.

Turning to `C/C=C(/C)C(=O)O[C@H]1C(C)=C2[C@H]([C@@H]1OC(=O)CCCCCCC)[C@@](C)(OC(C)=O)C[C@H](OC(=O)CCC)[C@@]1(O)[C@H]2OC(=O)[C@@]1(C)O` [thapsigargin, Thapsigargin], the “induction of the unfolded protein response (UPR), RNA-seq” value in [10] (pDCs from HDs cultured 8 h, TM at 3 μg/ml or TG at 0.5 μM vs media alone, FIGS. 5A-5D) is reported as “strong induction”. Moreover, in series [11], the “effect on IL-6 expression” value was “negligible effects”. In addition, the “intracellular ATP levels under ER stress” value in [2] (TM or TG for 3 h, 2.5 h, normalized to medium, FIGS. 3E-3H) is “reduced”. Further, in series [3] (TM or TG for 3 h, followed by TLR9 agonist for 5 h, FIG. 2D), the PHGDH gene expression entry was “markedly induced”. Further, in [3] (TM or TG for 3 h, followed by TLR9 agonist for 5 h, FIGS. 2D, 7C, 7D), the “serine biosynthesis gene expression (PHGDH, PSAT1, PSPH), irrespective of TLR9 signaling” value is on record as “induction”. Also, in [12] (TM or TG for 3 h), the “intracellular pyruvate levels in ER stressed-pDCs” value is listed as “significantly reduced”. Further, in [4] (TM 3 μg/ml or TG 0.5 μM for 3 h, then CpG-C274 0.075 μM, quantified at 5 h, normalized to TLR9 agonist, FIG. 1A), the “expression levels of IFNA in response to TLR9” value is “drastically inhibited”. Besides, the effect on viability entry in [13] is reported as “negligible effects”. Further, in [14], the “capacity to express IFN-α with ER stress inducer alone” value is reported as “not impacted”.

Consider `Cc1cc(=O)oc2c(C=O)c(O)ccc12` [4μ8c], for which the “IFNA expression in TLR9-activated pDCs under ER stress plus IRE1α inhibitor” value in series [4] (then TLR9 agonist, 5 h) was “prevented ER stress-driven inhibition of IFN-α”.

For `Cc1cc(C)nc(NC(=S)N2CCN(Cc3ccc(C(F)(F)F)cc3)CC2)c1` [NCT-503], in [2] (tunicamycin with NCT-503 at 2 μM for 3 h, 2.5 h, FIG. 3I), the “intracellular ATP levels under ER stress plus PHGDH inhibitor” value is on record as “restored”. Also, the “intracellular pyruvate levels in ER stressed-pDCs plus PHGDH inhibitor” value in series [12] (TM or TG with NCT-503 at 2 μM for 3 h) is “restored”. The “IFNA expression by TLR9-activated pDCs facing ER stress plus PHGDH inhibitor” value in [4] (TM or TG with NCT-503 at 2 μM for 3 h, then TLR9 agonist, 5 h, FIGS. 2H, 2I) is “restored”.

In the case of `O=C(Cc1cccc(OC(F)(F)F)c1)Nc1ccc(CCCCc2nnc(NC(=O)Cc3ccccn3)s2)nn1` [CB839], the “IFNA (IFN-I) expression in TLR9-activated pDCs” value in series [4] (setting [15]) was “Inhibit”.

For the molecule `N#C/C(=C\c1cn(-c2ccccc2)c2ccccc12)C(=O)O` [UK5099], the “IFNA (IFN-I) expression in TLR9-activated pDCs” value in series [4] (setting [15]) was “Inhibit”.

`Cc1ccc(OCCN(C)C(=O)Cn2cc(NC(=O)CCOc3ccccc3)cn2)cc1` [IXA4]: in [1] (IXA4 at 10 μM & 30 μM for 6 h, FIG. 1H), the XBP1 splicing entry is “enhanced”. For the same molecule, the PHGDH gene expression result in series [3] (IXA4 at 30 μM for 6 h, normalized to medium, FIG. 2F) was “conversely induced”. For the same molecule, the “IFNA expression in TLR9-activated pDCs” value in [4] (IXA4 at 10 μM & 30 μM for 1 h, then TLR9 agonist, 5 h, FIG. 1I) was “abrogated”.

In the case of `COc1cc2c(C)c(CC(=O)N3CCOCC3)c(=O)oc2c(C=O)c1O` [MKC8866], in series [4] (then TLR9 agonist, 5 h), the “IFNA expression in TLR9-activated pDCs under ER stress plus IRE1α inhibitor” value is on record as “prevented ER stress-driven inhibition of IFN-α”.

B1: CXCL4: chemokine CXCL4 (Sigma: SRP3142) added to pDC culture at 3 μg/ml (protein, UniProt P02776 32-101, looked up)
Platelet factor 4: EAEEDGDLQCLCVKTTSQVRPRHITSLEVIKAGPHCPTAQLIATLKNGRKICLDLQAPLYKKIIKKLLES
As to B1, in series [10] (tunicamycin 3 h, then TLR9 agonist with CXCL4 3 μg/ml, 5 h, FIG. 4D), the “expression of UPR genes (XBP1, spliced XBP1, HSPA5, DNAJB9) facing ER stress” value was “significant decrease”. Further, the “PHGDH upregulation under ER stress” value in series [3] (tunicamycin 3 h, then TLR9 agonist with CXCL4 3 μg/ml, 5 h, FIG. 4E) is “dampened”. Further, the “IFN-α expression by TLR9-activated pDCs undergoing ER stress” value in series [4] (tunicamycin 3 h, then TLR9 agonist with CXCL4 3 μg/ml, 5 h, FIG. 10A) is reported as “restore”. Moreover, in [9] (tunicamycin 3 h, then TLR9 agonist with CXCL4 3 μg/ml, 13 h, FIG. 4C), the “IFN-α secretion by TLR9-activated pDCs undergoing ER stress” value is recorded as “restore”.
